Reference: US20260092085A1, “SYNTHETIC TRIPLEX PEPTIDE NUCLEIC ACID-BASED INHIBITORS FOR CANCER THERAPY” (University of Connecticut, priority 2022, published 2026)

Columns and labels:
[1] = system: U2932 lymphoma cell line; conditions: U2932, 10 uM; cited from earlier work
[2] = system: miR-155; experiment: miR-155 gene expression by RT-PCR in U2932 cells; assay type: cell-based, human; conditions: U2932, 500 nM, 48 hours, relative to scrambled control
Experimental: FIGS. 3A-F show cell culture-based functional assay in U2932 lymphoma cells. (3A) γtcPNA-155-TAMRA uptake in the U2932 lymphoma cell line: Representative flow cytometry traces of TAMRA fluorescence in U2932 cells after treatment with 500 nM dose of γtcPNA-155-TAMRA for 48 hours. The data was analyzed by FlowJo software. (3B) Normalized miR-155 gene expression levels in U2932 after treatment with phosphate buffer saline (PBS) as a control and with 500 nM dose of Scr-γtcPNA-155, PNA-155, γPNA-155 and γtcPNA-155 for 48 hours compared to average control U6 (n=3), data represented as mean±standard error mean (SEM), Statistical analysis was performed using Unpaired two-tailed t-test. Further, statistical analysis was performed relative to Scr-γtcPNA-155 treated cells. ***p<0.001. (3C) Gene expression level of miR-155 downstream genes, tumor suppressor proteins (FOXO3A, CUX1, SOCS1, CSF1R, JARID2, SHIP1, PICALM, PDCD4, BACH1, WEE1, TP53TG3, CASP3, PTEN) in U2932 cell line after treatment with PBS as a control and with after treatment with 500 nM of Scr-γtcPNA-155, PNA-155, γPNA-155 and γtcPNA-155 for 48 hours. Data is normalized with average GAPDH control (n=3), and represented as mean±SEM, *p<0.05. Unpaired two-tailed t-test was used for statistical analysis and analysis was performed relative to Scr-γtcPNA-155 treated cells. (3D) Gene expression level of miR-155 downstream genes MCL1 in U2932 cell line after treatment with PBS as a control and 500 nM of Scr-γtcPNA-155, PNA-155, γPNA-155 and γtcPNA-155 for 48 hours. Data is normalized with average GAPDH control (n=3), and represented as mean±SEM, *p<0.05, **p<0.01 and ***p<0.001. […] (3E) Representative western blot of Mcl-1 and its quantification (n=3 technical replicate) and (3F) Caspase-3 protein and its quantification (n=3 technical replicate) in U2932 cell line after treatment with 500 nM of Scr-γtcPNA-155, PNA-155 and γtcPNA-155 for 48 hours. […] Numbers above western blot panels represent relative quantification of the respective bands using ImageJ software and normalized relative to loading control and treatment control. […]

[3] = system: miR-155 downstream genes; experiment: Gene expression of miR-155 downstream genes by RT-PCR in U2932 cells; assay type: cell-based, human; conditions: U2932, 500 nM, 48 hours
Experimental: FIGS. 3A-F show cell culture-based functional assay in U2932 lymphoma cells. (3A) γtcPNA-155-TAMRA uptake in the U2932 lymphoma cell line: Representative flow cytometry traces of TAMRA fluorescence in U2932 cells after treatment with 500 nM dose of γtcPNA-155-TAMRA for 48 hours. The data was analyzed by FlowJo software. (3B) Normalized miR-155 gene expression levels in U2932 after treatment with phosphate buffer saline (PBS) as a control and with 500 nM dose of Scr-γtcPNA-155, PNA-155, γPNA-155 and γtcPNA-155 for 48 hours compared to average control U6 (n=3), data represented as mean±standard error mean (SEM), Statistical analysis was performed using Unpaired two-tailed t-test. Further, statistical analysis was performed relative to Scr-γtcPNA-155 treated cells. ***p<0.001. (3C) Gene expression level of miR-155 downstream genes, tumor suppressor proteins (FOXO3A, CUX1, SOCS1, CSF1R, JARID2, SHIP1, PICALM, PDCD4, BACH1, WEE1, TP53TG3, CASP3, PTEN) in U2932 cell line after treatment with PBS as a control and with after treatment with 500 nM of Scr-γtcPNA-155, PNA-155, γPNA-155 and γtcPNA-155 for 48 hours. Data is normalized with average GAPDH control (n=3), and represented as mean±SEM, *p<0.05. Unpaired two-tailed t-test was used for statistical analysis and analysis was performed relative to Scr-γtcPNA-155 treated cells. (3D) Gene expression level of miR-155 downstream genes MCL1 in U2932 cell line after treatment with PBS as a control and 500 nM of Scr-γtcPNA-155, PNA-155, γPNA-155 and γtcPNA-155 for 48 hours. Data is normalized with average GAPDH control (n=3), and represented as mean±SEM, *p<0.05, **p<0.01 and ***p<0.001. Statistical analysis was performed using Unpaired two-tailed t-test. Analysis was performed relative to Scr-γtcPNA-155 treated cells. (3E) Representative western blot of Mcl-1 and its quantification (n=3 technical replicate) and (3F) Caspase-3 protein and its quantification (n=3 technical replicate) in U2932 cell line after treatment with 500 nM of Scr-γtcPNA-155, PNA-155 and γtcPNA-155 for 48 hours. Data is represented as mean±SEM and unpaired two-tailed t-test was used for statistical analysis. *p<0.05 **p<0.01. Numbers above western blot panels represent relative quantification of the respective bands using ImageJ software and normalized relative to loading control and treatment control.
Gene expression by RT-PCR: 400,000 U2932 cells were seeded in a 12 well plate. The cells were treated with 500 nM PNA-155, gamma tcPNA-155, gamma PNA-155, Scr gamma tcPNA-155 or were PBS treated (control) for 48 hrs in an incubator (37° C. and 5% CO2). The cells were centrifuged at 2000 rpm for 4 mins at 4° C. The total RNA from the cell pellet was extracted using RNeasy® mini kit (Qiagen). The cDNA was prepared in thermal cycler (Bio-rad) using reverse transcriptase, RNase inhibitor, dNTPs, nuclease-free water and RT primers specific for miR-155 and U6. Random primers were used for the preparation of cDNA for downstream targets. The cDNA was amplified using miR-155 assay, U6 assay, or specific downstream target assays in CFX Connect™ Real-time PCR detection system (Bio-rad). The samples were subjected to polymerase activation (95° C. for 10 mins), followed by 40 cycles of denaturation (95° C. for 15 sec) and annealing (60° C. for 1 min). The 2^−ΔΔCT method was used to calculate the fold change in target genes.

[4] = system: U2932 subcutaneous tumors; experiment: Tumor growth in U2932 derived xenograft model; assay type: in vivo, NSG mice; conditions: intra-tumoral injections days 0, 7, 14
Experimental: Mouse tumor xenograft: Female NSG mice (NOD.Cg-Prkdcscid Il2rgtm1Wjl/SzJ, strain 005557) weighing 20-23 g were procured from Jackson laboratories. 1×10^7 U2932 cells suspended in RPMI-1640 medium were injected subcutaneously in the right and left flank of 6-week-old NSG mice. The mice developed a small bump in 2 weeks. When the tumor volume reached 100-200 mm^3, the mice were randomly assigned to the treatment group (n=6 per group).
(§1) RNA and Protein extraction from tumor samples: The mice were injected intra-tumorally with 1 mg kg-1 dose of PNA-155, γtcPNA-155, γPNA-155, Scr-γtcPNA-155 or were untreated. The injections were repeated two additional times after 1 week each. The length, breadth, and depth of the tumors were measured daily using a vernier caliper. The mice were euthanized when the tumor volumes reached 2000 mm^3. The resected tumor sections were finely minced using a sterile blade and suspended in dissociation media (4 ml) comprising of RPMI-1640, 1.2 mg/ml dispase, and 0.5 mg/ml collagenase for 90 mins at 500 rpm at 37° C. The dissociated tumors were washed with buffer saline at 2500 rpm (4 mins) at 4° C. and then suspended in 0.25% trypsin for 4 mins at room temperature. RPMI 1640 media was added to the trypsinized tumor mass, and the cells were passed through a 70 um filter. The cells were centrifuged at 2500 rpm for 4 mins at 4° C. The cell pellet was then suspended in 1×RBC lysis buffer (Sigma) and incubated on ice for 10 mins. PBS was added to the cells and the cells were passed through a 40 um filter. The cells were centrifuged at 2500 rpm for 4 mins at 4° C. The cell pellet was resuspended in 0.5% BSA in PBS. The mouse cells were removed from the tumor cells using a mouse cell depletion kit (Miltenyi Biotec) according to the manufacturer's protocol. The enriched tumor cells from each tumor sample were divided into two fractions. RNA for gene expression analysis was extracted from one tumor fraction by the same procedure as mentioned earlier. The protein for western blot analysis was extracted from the second fraction using the method described above.
For the efficacy study, each mouse received three intra-tumoral injections of either γtcPNA-155, γPNA-155 or PNA-155 on days 0, 7, 14. We noticed that the control and scrambled treated tumors reached 2000 mm^3 much faster during our study, so we could not inject a third time in these mice. […] In contrast, as stated earlier, there was no effect on the control and scrambled PNA control on the tumor volume.

[5] = system: miR-155; experiment: miR-155 gene expression in U2932 tumor samples after in vivo treatment; set-up: species or system NSG mice; conditions: U2932 xenograft, intra-tumoral
Experimental: FIGS. 22A-D show in vivo gene expression and protein level analysis. (22A) miR-155 gene expression levels in U2932 tumor samples after in vivo treatment with indicated PNAs. Data was normalized with average control U6 (n=4, data represented as mean±standard error mean). ***p<0.001 (22B) Gene expression level of downstream target genes of miR-155: MCL1 in U2932 tumor samples after treatment with total 3 mg kg-1 dose of Scr-γtcPNA-155, PNA-155, γPNA-155 and γtcPNA-155 and normalized with average control GAPDH (n=3, data represented as mean±SEM), unpaired two-tailed t-test was performed for analysis). *p<0.05, **p<0.01 (22C) Representative western blot of Mcl-1 protein and its quantification (n=3 technical replicate) in U2932 tumor samples treated with total 3 mg kg-1 dose of Scr-γtcPNA-155, PNA-155 and γtcPNA-155. Data is represented as mean±SEM and unpaired two-tailed t-test was performed for analysis. *p<0.05. The relative protein levels were determined from the band intensity using ImageJ software and normalized relative to loading control and treatment control. (22D) Gene expression level of tumor suppressor proteins (FOXO3A, CUX1, SOCS1, CSF1R, JARID2, SHIP1, PICALM, PDCD4, BACH1, CASP3) in U2932 tumor samples after treatment with total 3 mg kg-1 dose of Scr-γtcPNA-155, PNA-155, γPNA-155 and γtcPNA-155 and normalized with average control GAPDH (n=3, data represented as mean±SEM, unpaired two-tailed t-test was performed for statistical analysis). *p<0.05, **p<0.01.
as §1, with “The mouse cells were removed from the tumor cells using a mouse cell depletion kit (Miltenyi Biotec) according to the manufacturer's protocol. The enriched tumor cells from each tumor sample were divided into two fractions. RNA for gene expression analysis was extracted from one tumor fraction by the same procedure as mentioned earlier. The protein for western blot analysis was extracted from the second fraction using the method described above.” left out

In the case of cobomarsen, the “increase in apoptosis compared to control” value [1] is given as 4 fold.
With “γPNA-155: single-stranded full-length serine gamma PNA binding miR-155 by Watson-Crick pairing, SEQ ID NO: 1 (ACCCCTATCACGATTAGCATTAA; all peptide nucleic acid (PNA); serine gamma-PNA, two arginine residues (X1 RR) at each terminus, further chemistry not fully specified)” the miR-155 inhibition [2] was roughly 83%, the “de-repression of miR-155 target tumor suppressor genes” value [3] was “significant de-repression” and the “reduction in MCL1 gene expression levels” value [3] was 19%. The “tumor growth / tumor volume” value [4] was “reduced the tumor growth” and the “decrease in miR-155 gene expression in tumors” value [5] was 80%.
